These compounds were tested against recombinant human ACC2 (Homo sapiens (Human), UniProt O00763) (assay: Measurement of inhibitory activity on human ACC2 (MALDI-TOF MS, acetyl CoA to malonyl CoA conversion)). Details: Table 154.
Assay type: biochemical
Excerpt: Preparation 1: Preparation of Recombinant Human ACC2
After a cDNA encoding human ACC2 (27 amino acid residue to 2458 amino acid residues from the N-terminus) was cloned from human kidney cDNA library (Clontech), human ACC2 gene containing His-tag sequence at 5′ terminus was inserted into pFastBac1 (Invitrogen). Recombinant baculovirus was generated using Bac-to-Bac baculovirus expression system (Invitrogen) according to the manufacturer's protocol. To express human ACC2, Sf-9 cells were infected with recombinant baculovirus. After infected cells were disrupted, the filtrated lysate was subjected to Ni-affinity chromatography and anion-exchange chromatography. The fractions containing human ACC2 protein were pooled as recombinant human ACC2 solution.
The Measurement of Inhibitory Activity on Human ACC1 and the ACC2
Recombinant human ACC1 and recombinant human ACC2, which were prepared by the method mentioned above, were preincubated with assay buffer solution (50 mM HEPES-KOH (pH 7.4), 10 mM magnesium chloride, 6-10 mM potassium citrate, 4 mM reduced form of glutathione, 1.5 mg/ml bovine serum albumin) for one hour. Then, 0.2 μL of each this invention compound solution (in DMSO) were dispensed to 384-well microplate, 5 μL of the preincubated enzyme solution and 5 μL of substrate solution (50 mM HEPES-KOH (pH 7.4), 1 mM ATP, 0.8 mM acetyl CoA and 25-50 mM potassium bicarbonate) were added to microplate. After centrifugation and shaking, the reaction mixtures were incubated in a humidified box at room temperature for 1 to 3 hours. After the incubation, the enzyme reactions were stopped by the addition of EDTA. Then, after the samples were cocrystallized with CHCA (α-cyano-4-hydroxy cinnamic acid) matrices on MALDI target plate, by using the matrix assist laser […] time-of-flight mass spectrometer (MALDI-TOF MS), samples were measured in reflector negative mode. Deprotonated ions of acetyl CoA (AcCoA) of substrate and malonyl CoA (MalCoA) of the reaction product were detected, then, the conversion rates of acetyl CoA to malonyl CoA was calculated by the intensity of [MalCoA-H]−/(Intensity of [MalCoA-H]−+Intensity of [AcCoA-H]−) using each signal strength. […] In addition, potassium citrate concentrations in assay buffer solution, potassium hydrogen carbonate concentrations in substrate solution and incubation time were adjusted by each lot of enzyme.

recombinant human ACC2, sequence (O00763 27-2458): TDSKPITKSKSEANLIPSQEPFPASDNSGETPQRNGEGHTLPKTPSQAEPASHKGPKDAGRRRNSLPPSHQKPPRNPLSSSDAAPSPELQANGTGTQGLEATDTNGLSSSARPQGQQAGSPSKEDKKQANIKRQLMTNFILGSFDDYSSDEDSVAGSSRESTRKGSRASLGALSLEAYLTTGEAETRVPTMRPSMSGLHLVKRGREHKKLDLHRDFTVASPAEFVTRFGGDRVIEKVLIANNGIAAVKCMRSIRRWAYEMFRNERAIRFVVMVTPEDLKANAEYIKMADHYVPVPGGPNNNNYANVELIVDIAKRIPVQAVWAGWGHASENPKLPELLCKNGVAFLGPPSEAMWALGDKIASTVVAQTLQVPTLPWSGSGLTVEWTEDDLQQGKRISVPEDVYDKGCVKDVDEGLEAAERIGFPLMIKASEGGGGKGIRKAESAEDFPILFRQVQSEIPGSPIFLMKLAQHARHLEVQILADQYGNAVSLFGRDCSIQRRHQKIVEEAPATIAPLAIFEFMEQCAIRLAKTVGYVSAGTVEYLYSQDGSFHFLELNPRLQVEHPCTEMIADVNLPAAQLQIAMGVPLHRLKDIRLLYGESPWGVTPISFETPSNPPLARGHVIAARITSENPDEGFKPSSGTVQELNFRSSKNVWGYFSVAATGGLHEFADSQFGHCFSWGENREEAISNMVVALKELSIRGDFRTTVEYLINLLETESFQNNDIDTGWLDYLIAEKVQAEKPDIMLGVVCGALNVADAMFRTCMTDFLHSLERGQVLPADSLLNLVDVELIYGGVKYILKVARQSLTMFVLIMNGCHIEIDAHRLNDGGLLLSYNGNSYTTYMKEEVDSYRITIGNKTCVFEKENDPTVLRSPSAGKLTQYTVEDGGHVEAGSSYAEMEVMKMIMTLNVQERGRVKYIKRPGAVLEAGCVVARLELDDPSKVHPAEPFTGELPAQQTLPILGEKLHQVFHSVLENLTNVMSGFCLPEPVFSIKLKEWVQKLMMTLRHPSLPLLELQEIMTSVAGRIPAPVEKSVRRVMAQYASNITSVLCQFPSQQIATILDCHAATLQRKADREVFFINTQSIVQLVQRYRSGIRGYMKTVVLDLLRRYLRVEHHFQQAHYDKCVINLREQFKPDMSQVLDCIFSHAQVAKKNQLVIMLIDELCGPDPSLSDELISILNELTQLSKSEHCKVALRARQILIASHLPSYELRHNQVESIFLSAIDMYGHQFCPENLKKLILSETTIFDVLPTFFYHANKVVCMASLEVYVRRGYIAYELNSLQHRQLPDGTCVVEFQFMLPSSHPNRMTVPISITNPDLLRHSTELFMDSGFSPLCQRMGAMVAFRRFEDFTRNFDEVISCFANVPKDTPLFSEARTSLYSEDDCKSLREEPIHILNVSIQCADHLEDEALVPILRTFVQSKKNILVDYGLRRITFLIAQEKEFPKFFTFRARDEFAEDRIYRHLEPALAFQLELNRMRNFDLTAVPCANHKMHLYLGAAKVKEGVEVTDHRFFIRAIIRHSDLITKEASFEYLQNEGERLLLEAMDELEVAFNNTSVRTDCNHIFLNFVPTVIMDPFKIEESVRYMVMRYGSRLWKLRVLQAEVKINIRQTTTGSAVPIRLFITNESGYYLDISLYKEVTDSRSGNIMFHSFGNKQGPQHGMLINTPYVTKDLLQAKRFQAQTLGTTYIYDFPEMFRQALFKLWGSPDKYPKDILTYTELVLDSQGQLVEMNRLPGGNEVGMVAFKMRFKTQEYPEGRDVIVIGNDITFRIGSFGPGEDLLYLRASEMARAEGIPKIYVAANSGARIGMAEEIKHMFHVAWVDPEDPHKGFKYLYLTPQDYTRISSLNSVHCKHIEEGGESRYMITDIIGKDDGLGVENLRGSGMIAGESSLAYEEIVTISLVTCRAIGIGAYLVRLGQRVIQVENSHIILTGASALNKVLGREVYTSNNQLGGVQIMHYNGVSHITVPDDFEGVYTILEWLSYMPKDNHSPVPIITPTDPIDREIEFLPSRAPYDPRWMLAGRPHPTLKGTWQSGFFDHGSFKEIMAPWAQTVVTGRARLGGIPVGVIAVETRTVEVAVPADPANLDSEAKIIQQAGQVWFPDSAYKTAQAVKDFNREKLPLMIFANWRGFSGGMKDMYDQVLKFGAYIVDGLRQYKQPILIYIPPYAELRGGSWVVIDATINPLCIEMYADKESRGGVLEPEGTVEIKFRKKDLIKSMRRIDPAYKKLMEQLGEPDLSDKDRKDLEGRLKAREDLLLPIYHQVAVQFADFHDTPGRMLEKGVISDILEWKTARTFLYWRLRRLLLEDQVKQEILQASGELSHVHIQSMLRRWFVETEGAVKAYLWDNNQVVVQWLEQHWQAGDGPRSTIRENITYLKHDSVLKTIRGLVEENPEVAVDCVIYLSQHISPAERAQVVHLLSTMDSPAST

SMILES | IC50 [nM]
CCCc1ccc(Oc2ccc(OC[C@H](C)NC(N)=O)cc2)c(Cl)c1 [Compound I-006] | 348
CCCc1ccc(Oc2ccc(OC[C@H](C)NC(=O)NCC)cc2)c(Cl)c1 [Compound I-007] | 1390
CC(=O)N[C@@H](C)CC(=O)c1ccc(Oc2ccc(OCC3CC3)cc2Cl)nc1 [Compound I-008] | 220
CCCc1ccc(Oc2ccc(OCC[C@H](C)NC(C)=O)cc2)c(Cl)c1 [Compound I-010] | 1010
CC(=O)N[C@@H](C)COc1ccc(Oc2ccc3nc(C(C)C)sc3c2Cl)cn1 [Compound I-012] | 64
CC(=O)N[C@@H](C)[C@H](C)Oc1ccc(Oc2ccc3nc(C(C)C)sc3c2Cl)cn1 [Compound I-014] | 759
CC(=O)N[C@@H](C)COc1ccc(Oc2ccc3nc(C(C)C)sc3c2F)cn1 [Compound I-018] | 75
CCCc1ccc(Oc2cnc(OC[C@H](C)NC(C)=O)cn2)c(Cl)c1 [Compound I-021] | 502
CC(=O)N[C@@H](C)COc1ccc(Oc2ccc3c(c2Cl)CCN(C(=O)OC(C)(C)C)C3)cn1 [Compound I-022] | 1250
CC(=O)N[C@@H](C)COc1ccc(Oc2ccc3c(c2Cl)CCN(c2ncc(F)cn2)C3)cn1 [Compound I-023] | 38
CC(C)c1nc2ccc(Oc3ccc(OC[C@H](C)NC(N)=O)nc3)c(Cl)c2s1 [Compound I-024] | 133
CC(C)c1nc2ccc(Oc3ccc(OC[C@H](C)NC(=O)CO)nc3)c(Cl)c2s1 [Compound I-025] | 652
CC(=O)N[C@@H](C)COc1cnc(Oc2ccc3nc(C(C)(F)F)sc3c2Cl)cn1 [Compound I-028] | 28
CC(=O)N[C@@H](C)COc1cnc(Oc2c(F)cc3nc(C(C)C)sc3c2F)cn1 [Compound I-032] | 52
CCC(F)(F)c1nc2ccc(Oc3cnc(OC[C@H](C)NC(C)=O)cn3)c(Cl)c2s1 [Compound I-033] | 50
CC(=O)N[C@@H](C)COc1cnc(Oc2ccc3nc(C4CC4)sc3c2F)cn1 [Compound I-034] | 49
CC(=O)N[C@@H](C)COc1cnc(Oc2ccc3nc(C4(C)CC4)sc3c2Cl)cn1 [Compound I-035] | 102
CC(=O)N[C@@H](C)COc1cnc(Oc2ccc3nc(C(C)C)sc3c2Cl)cn1 [Compound I-038] | 72
CC(=O)N[C@@H](C)CO[C@H]1CC[C@H](Oc2ccc3nc(C(C)C)sc3c2F)CC1 [Compound I-042] | 15
CC(=O)N[C@@H](C)COc1cnc(Oc2ccc3nc(C(C)(F)F)oc3c2F)cn1 [Compound I-043] | 93

SMILES | IC50 [nM]
CCOc1nc2ccc(Oc3cnc(OC[C@H](C)NC(C)=O)cn3)c(F)c2s1 [Compound I-045] | 8
CC(=O)N[C@@H](C)CO[C@H]1CC[C@H](Oc2ccc3nc(C(C)(C)O)sc3c2Cl)CC1 [Compound I-047] | 336
CC(=O)N[C@@H](C)[C@@H](C)Oc1cnc(Oc2ccc3nc(C(C)C)sc3c2F)cn1 [Compound I-049] | 134
CC(=O)N[C@@H](C)CO[C@H]1CC[C@H](Oc2ccc3nc(C(C)C)sc3c2C#N)CC1 [Compound I-051] | 84
CC(=O)N[C@@H](C)CO[C@H]1CC[C@H](Oc2ccc3nc(C(C)(F)F)sc3c2Cl)CC1 [Compound I-052] | 265
CCOc1nc2ccc(O[C@H]3CC[C@H](OC[C@H](C)NC(C)=O)CC3)c(Cl)c2s1 [Compound I-054] | 15
CCOc1nc2ccc(O[C@H]3CC[C@H](OC[C@H](C)NC(C)=O)CC3)c(F)c2s1 [Compound I-055] | 13
CC(=O)N[C@@H](C)[C@H](C)Oc1cnc(Oc2ccc3nc(C(C)(F)F)sc3c2F)cn1 [Compound I-056] | 57
CCOc1nc2ccc(Oc3cnc(O[C@@H](C)[C@H](C)NC(C)=O)cn3)c(F)c2s1 [Compound I-059] | 29
CCOc1nc2ccc(Oc3cnc(O[C@H](C)[C@H](C)NC(C)=O)cn3)c(F)c2s1 [Compound I-061] | 115
CC(=O)N[C@@H](C)CO[C@H]1CC[C@H](Oc2ccc3nc(C(C)C)oc3c2F)CC1 [Compound I-062] | 24
CCc1nsc2c(Cl)c(Oc3cnc(OC[C@H](C)NC(C)=O)cn3)ccc12 [Compound I-063] | 128
CC(=O)N[C@@H](C)CO[C@H]1CC[C@H](Oc2ccc3sc(C(C)C)nc3c2Cl)CC1 [Compound I-066] | 1300
CCOc1nc2ccc(Oc3cnc(OC[C@H](C)NC(C)=O)cn3)c(C#N)c2s1 [Compound I-068] | 25
CCOc1ncc2c(Cl)c(Oc3cnc(OC[C@H](C)NC(C)=O)cn3)ccc2n1 [Compound I-069] | 1400
CC(=O)N[C@@H](C)COc1cnc(Oc2ccc3nc(N4CCC(F)(F)CC4)ncc3c2Cl)cn1 [Compound I-073] | 221
CCOc1nc2ccc(O[C@H]3C[C@H](OC[C@H](C)NC(C)=O)C3)c(Cl)c2s1 [Compound I-075] | 20
CCOc1nc2ccc(O[C@H]3C[C@@H](OC[C@H](C)NC(C)=O)C3)c(F)c2s1 [Compound I-076] | 102
CCOc1nc2ccc(O[C@H]3CC[C@](C)(OC[C@H](C)NC(C)=O)CC3)c(F)c2s1 [Compound I-078] | 189

The remaining compounds from weak to strong by IC50, led by results:

IC50 [nM] | SMILES
3730 | CCCc1ccc(Oc2ccc(OC[C@H](C)NC(C)=O)cn2)c(Cl)c1 [Compound I-004]
1290 | CC(=O)N[C@@H](C)COc1cnc(Oc2ccc3c(c2Cl)OCCN(CC(F)(F)F)C3=O)cn1 [Compound I-080]
1120 | CC(=O)N[C@@H](C)CO[C@H]1CC[C@H](Oc2ccc3nc(C(C)C)oc3c2Cl)CC1 [Compound I-064]
1060 | CCCc1ccc(Oc2ccc(C(=O)C[C@H](C)NC(C)=O)nc2)c(Cl)c1 [Compound I-009]
756 | CC(=O)N[C@@H](C)CO[C@H]1CC[C@@H](Oc2ccc3nc(C(C)C)sc3c2F)CC1 [Compound I-044]
469 | CC(=O)N[C@@H](C)COc1cnc(Oc2ccc3sc(C(C)C)nc3c2Cl)cn1 [Compound I-070]
400 | CCC(C)(C)c1ccc(Oc2ccc(OC[C@H](C)NC(C)=O)nc2)c(Cl)c1 [Compound I-016]
395 | CC(=O)N[C@@H](C)COc1ccc(Oc2ccc3nc(C(C)C)sc3c2C#N)cn1 [Compound I-013]
378 | CC(=O)N[C@@H](C)COc1cnc(Oc2ccc3nc(C(C)(C)O)sc3c2Cl)cn1 [Compound I-027]
213 | CC(=O)N[C@@H](C)CO[C@H]1CC[C@H](Oc2ccc3nc(C(C)C)sc3c2Cl)CC1 [Compound I-046]
184 | CCCc1ccc(Oc2ccc(OC[C@H](C)NC(C)=O)cc2)c(Cl)c1 [Compound I-005]
168 | CCOc1nc2ccc(O[C@H]3C[C@@H](OC[C@H](C)NC(C)=O)C3)c(Cl)c2s1 [Compound I-077]
166 | CC(=O)N[C@@H](C)[C@@H](C)Oc1cnc(Oc2ccc3nc(C(C)(F)F)sc3c2F)cn1 [Compound I-057]
154 | CC(=O)N[C@@H](C)COc1cnc(Oc2ccc3nc(N4CC(F)(F)C4)ncc3c2Cl)cn1 [Compound I-072]
120 | CCCc1ccc(Oc2ccc(O[C@@H](C)[C@H](C)NC(C)=O)nc2)c(Cl)c1 [Compound I-011]
102 | CC(=O)N[C@@H](C)COc1cnc(Oc2ccc3nc(C(C)(F)F)sc3c2C#N)cn1 [Compound I-041]
89 | CCOc1nc2cc(Cl)c(Oc3cnc(OC[C@H](C)NC(C)=O)cn3)cc2s1 [Compound I-065]
85 | CCOc1nc2ccc(O[C@H]3C[C@H](OC[C@H](C)NC(C)=O)C3)c(F)c2s1 [Compound I-074]
83 | CC(=O)N[C@@H](C)[C@H](C)Oc1cnc(Oc2ccc3nc(C(C)C)sc3c2F)cn1 [Compound I-048]
68 | CC(=O)N[C@@H](C)COc1ccc(Oc2cc(F)c3nc(C(C)C)sc3c2Cl)cn1 [Compound I-029]
54 | CCOc1nc2ccc(Oc3cnc(OC[C@H](C)NC(=O)CO)cn3)c(Cl)c2s1 [Compound I-071]
52 | CC(=O)N[C@@H](C)COc1cnc(Oc2ccc3nc(C(C)C)oc3c2F)cn1 [Compound I-031]
20 | CC(=O)N[C@@H](C)COc1cnc(Oc2ccc3nc(C(C)C)sc3c2F)cn1 [Compound I-026]
16 | CCOc1nc2ccc(Oc3cnc(OC[C@H](C)NC(C)=O)cn3)c(Cl)c2s1 [Compound I-039]
15 | CC(=O)N[C@@H](C)COc1cnc(Oc2ccc3nc(C(C)(F)F)sc3c2F)cn1 [Compound I-036]
12 | CC(=O)N[C@@H](C)CO[C@H]1CC[C@H](Oc2ccc3nc(C(C)(F)F)sc3c2F)CC1 [Compound I-053]
10 | CC(=O)N[C@@H](C)COc1cnc(Oc2ccc3nc(C4(F)CC4)sc3c2F)cn1 [Compound I-050]

From patent publication US10150728B2, “Alkylene derivatives” (Shionogi & Co., Ltd., priority 2013, dated 2018)
